Entries after “also recorded” stand apart in the source; their conditions may differ. Where a SMILES comes first, the peptide text is derived from it. The star is where a group is joined. Cbz = O=C(OCc1ccccc1)*
Legend:
[1] = test system: cancer cells; settings: cited from earlier work
[2] = test system: HCT116 cells; experiment: Tumor formation in nude mice by cells pre-treated ex vivo with AKT1/2 inhibitor
Experimental: (§1) Xenografting & tumor propagation in vivo. For in vivo RICTOR knockdown experiments, 5×10^5 cells (MCF7, HCT116, A375, PC9, MDA-MB-231 cell lines) carrying either doxycycline-inducible non-silencing or RICTOR-targeting shRNAs (120392, 225915) were injected subcutaneously into the flanks of 5-6 week old, female nude mice. The mice were given doxycycline in water at 20 mg/ml for hairpin induction. For induction of asymmetrically dividing cells and slow proliferators, cells were treated with AKT1/2 inhibitor and DMSO (vehicle) for 72 h and were harvested at 60-70% confluence, and then counted and washed twice in PBS and resuspended in 1:1 Media: Matrigel (BD Biosciences). 5×10^6, 5×10^5, 5×10^4, 5×10^3 and 5×10^2 cells respectively were injected subcutaneously into the flanks of 5-6 week old, female nude mice (Nude/Nude) (Charles River Labs). For all experiments, growing tumors were measured weekly by caliper, and mice were killed after the tumor size reached 1 cm^3. Mouse experiments were carried out under a Massachusetts General Hospital Institutional Review Board-approved protocol.
(§2) Tumor studies in vivo. For TS2/16 antibody treatment studies in vivo, we injected 5×10^5 cells (A375, MDA-MB-231, PC9, HCT116, MCF7) subcutaneously into the flanks of 5-6 week old, female nude mice (Nude/Nude) (Charles River Labs). Once the tumors were palpable, mice were injected i.p. with TS2/16 ([…] at 4 mg/ml/wk×5 weeks) and the tumors were measured. For RICTOR knockdown experiments in vivo, we injected 5×10^5 cells (A375, MDA-MB-231, PC9, HCT116, MCF7) carrying either doxycycline-inducible non-silencing or RICTOR-targeting shRNAs (120392, 225915) subcutaneously into the flanks of 5-6 week old, female nude mice (Nude/Nude). The mice were given doxycycline in water at 20 mg/ml for hairpin induction starting immediately after implantation. For induction of slow proliferators, cells were treated with AKT1/2 inhibitor and DMSO (vehicle) for 72 h and were harvested at 60-70% confluence, and then counted and washed twice in PBS and resuspended in 1:1 Media: Matrigel (BD Biosciences). We then injected 5×106, 5×105, and 5×10^4 cells respectively subcutaneously into the flanks of 5-6 week old, female nude mice. For all experiments, growing tumors were measured weekly by caliper, and mice were killed when tumors reached approximately 1 cm3 in size. Animal experiments were carried out under a Massachusetts General Hospital Institutional Review Board-approved protocol.

[3] = test system: MCF7 cells; experiment: as above
Experimental: as §1, §2

[4] = test system: HCT116 cells; experiment: Confocal immunofluorescence scoring of asymmetrically dividing and G0-like (H3K9me2low/MCM2low/HES1high) cells; type: cell-based, human; settings: for frequency of asymmetrically dividing and G0-like cells / frequency of G0-like cells: HCT116; for frequency of asymmetrically dividing and G0-like cells: small molecule for 72 h at the single dose (low, non-antiproliferative or target-suppressing), vs DMSO control; for production of G0-like cells: wild-type HCT116, target-suppressing doses, 72 hours or 144 hours; for frequency of G0-like cells: proteasome inhibitor 1 μM for 24 h, doses that do not affect overall cell proliferation
Experimental: (§3) Drug treatment in vitro. Cells were seeded onto collagen IV-coated coverslips, allowed to attach overnight, and treated with vehicle (DMSO) or AKT1/2 inhibitor (HCT116: 20μM; MCF7: 2 μM) (Sigma), MK2206 (HCT116: 10 μM; MCF7: 3 μM) (Selleck Chemicals), TORIN1 (HCT116: 0.5 μM; MCF7: 0.25 μM) (Tocris Bioscience), AZD8055 (HCT116: 0.7 μM; MCF7: 0.1 μM) (Selleck Chemicals), INK128 (HCT116: 0.05 μM; MCF7: 0.01 μM) (Active Biochem), Palomid 529 (HCT116: 10 μM; MCF7: 20 μM) (Selleck Chemicals), (Rapamycin (HCT116: 20 μM; MCF7: 20 μM)(Sigma), RAD-001 (HCT116: 10 μM; MCF7: 5 μM) (Selleck Chemicals), (AZD5363 (HCT116: 50 μM; MCF7: 5 μM) (Active Biochem), GDC0068 (HCT116: 50 μM; MCF7: 5 μM) (Active Biochem) for 72 h and Bortezemib (HCT116: 1 μM; MCF7: 4 μM) (Selleck Chemicals) MG-132 (vehicle: ethanol) (HCT116: 1 μM; MCF7: 10 μM), for 24 h.
(§4) Immunofluorescence staining. For bulk populations and for colonies, cells were grown directly on collagen IV-coated coverslips (Sigma). Cells were fixed in 3.7% formalin, permeabilized using 0.1% Triton X-100, and treated with 0.1% SDS. They were blocked in 1% BSA and then incubated with primary antibody (α-H3K9me2 (Abcam); α-MCM2 and α-Tubulin (Cell Signaling), α-Hes1 and α-TTC3 (Abnova)) diluted in blocking solution, washed, and incubated with the respective secondary antibody. Cells were mounted using hard-set mounting media containing DAPI (Vector Laboratories). All secondary antibodies were Alexa Fluor conjugates (488, 555, 568, 633, and 647) (Invitrogen). Immunofluorescence imaging (on a Nikon Eclipse Ti A1R-A1 confocal microscope) and live-cell imaging (on the Nikon Biostation CT platform) were performed as previously described (1).
(§5) Drug treatment in vitro. Cells were seeded onto collagen IV-coated coverslips, allowed to attach overnight, and treated with vehicle (DMSO) or AKT1/2 inhibitor (HCT116: 20 μM; MCF7: 2 μM) (Sigma), MK2206 (HCT116: 10 μM; MCF7: 3 μM) (Selleck Chemicals), TORIN1 (HCT116: 0.5 μM; MCF7: 0.25 μM) (Tocris Bioscience), AZD8055 (HCT116: 0.7 μM; MCF7: 0.1 μM) (Selleck Chemicals), INK128 (HCT116: 0.05 μM; MCF7: 0.01 μM) (Active Biochem), Palomid 529 (HCT116: 10 μM; MCF7: 20 μM) (Selleck Chemicals), (Rapamycin (HCT116: 20 μM; MCF7: 20 μM)(Sigma), RAD-001 (HCT116: 10 μM; MCF7: 5 μM) (Selleck Chemicals), BKM-120 (HCT116: 1.5 μM; MCF7: 0.5 μM) (Active Biochem), FAK inhibitors (PF-562271: 1 μM Pfizer) and NVP-TAE226 : 1 μM (Novartis), for both cell lines) for 72 h and Bortezemib (HCT116: 1 μM; MCF7: 4 μM) (Selleck Chemicals) MG-132 (vehicle: ethanol) (HCT116: 1 μM; MCF7: 10 μM), for 24 h.
as §4, with “(a-H3K9me2” for “(α-H3K9me2”, “A1R-A1™” for “A1R-A1”, “described7. Slides coated with Type-I collagen (control) and AlignCol™ woven with large collagen fibers (100-200 nm) (Advanced Biomatrix) were incubated for 1 hour in 70% ethanol and then washed with PBS. Cells were then plated on the slides and processed for immunofluorescence.” for “described (1).”
(§6) Antibody activation and inhibition. […]

[5] = test system: MCF7 cells; experiment: as above; type: cell-based, human; settings: for frequency of asymmetrically dividing and G0-like cells / frequency of G0-like cells: MCF7; for frequency of asymmetrically dividing and G0-like cells: small molecule for 72 h at the single dose (low, non-antiproliferative or target-suppressing), vs DMSO control; for production of G0-like cells: wild-type MCF7, target-suppressing doses, 72 hours or 144 hours; for frequency of G0-like cells: proteasome inhibitor for 24 h (Bortezomib 4 μM, MG-132 10 μM), doses that do not affect overall cell proliferation
Experimental: as §3, §4, §5
as §4, with “(a-H3K9me2” for “(α-H3K9me2”, “A1R-A1™” for “A1R-A1”, “described7. Slides coated with Type-I collagen (control) and AlignCol™ woven with large collagen fibers (100-200 nm) (Advanced Biomatrix) were incubated for 1 hour in 70% ethanol and then washed with PBS. Cells were then plated on the slides and processed for immunofluorescence.” for “described (1).”
as §6

| Compound | frequency of asymmetrically dividing and G0-like cells [4] | frequency of asymmetrically dividing and G0-like cells [5] | other results |
| --- | --- | --- | --- |
| O=c1[nH]c2ccccc2n1C1CCN(Cc2ccc(-c3nc4cc5[nH]cnc5cc4nc3-c3ccccc3)cc2)CC1 [AKT1/2] | dramatically increases | dramatically increases | effect on cancer cells at higher doses [1]: kills cancer cells; tumor size, larger on average than tumors from untreated cell populations ([2]; HCT116 pre-treated 72 h, implanted in nude mice): 50%; engraftment ([2]; HCT116 pre-treated 72 h with low dose, implanted s.c. in nude mice over a range of cell numbers, vs DMSO-treated cells): significantly increased; also recorded: significantly promoted; tumor size over time ([2]; HCT116 pre-treated with low dose ex vivo, s.c. in nude mice, 100-fold cell number range): notably larger; tumor size, larger on average than tumors from untreated cell populations ([3]; MCF7 pre-treated 72 h, implanted in nude mice): 50%; engraftment ([3]; MCF7 pre-treated 72 h with low dose, implanted s.c. in nude mice over a range of cell numbers, vs DMSO-treated cells): significantly increased; also recorded: significantly promoted; tumor size over time ([3]; MCF7 pre-treated with low dose ex vivo, s.c. in nude mice, 100-fold cell number range): notably larger |
| COc1ccc(-c2ccc3c(N4CCOC[C@@H]4C)nc(N4CCOC[C@@H]4C)nc3n2)cc1CO [AZD8055] | significantly reduced | significantly reduced |  |
| Nc1cc(C(F)(F)F)c(-c2cc(N3CCOCC3)nc(N3CCOCC3)n2)cn1 [BKM-120] | not suppressed | not suppressed | production of G0-like cells [4]: not suppressed; production of G0-like cells [5]: not suppressed |
| CC(C)C[C@H](NC(=O)[C@H](Cc1ccccc1)NC(=O)c1cnccn1)B(O)O [Bortezomib] |  |  | frequency of G0-like cells [4]: significantly reduced; frequency of G0-like cells ([4]; listed as bortezomib): reduced; frequency of G0-like cells [5]: significantly reduced; frequency of G0-like cells ([5]; listed as bortezomib): reduced |
| CC(C)NC[C@@H](C(=O)N1CCN(c2ncnc3c2[C@H](C)C[C@H]3O)CC1)c1ccc(Cl)cc1 [GDC0068] | did not reduce | did not reduce |  |
| CC(C)n1nc(-c2ccc3oc(N)nc3c2)c2c(N)ncnc21 [INK-128] | significantly reduced | significantly reduced |  |
| CC(C)C[C@@H](C=O)NC(=O)[C@H](CC(C)C)NC(=O)[C@H](CC(C)C)NC(=O)OCc1ccccc1 [MG-132] (Cbz-Leu-Leu-Leu-aldehyde) |  |  | frequency of G0-like cells [4]: significantly reduced; frequency of G0-like cells [5]: significantly reduced |
| NC1(c2ccc(-c3nc4ccn5c(=O)[nH]nc5c4cc3-c3ccccc3)cc2)CCC1 [MK2206] | dramatically increases | dramatically increases |  |
| CNC(=O)c1ccccc1Nc1nc(Nc2ccc(N3CCOCC3)cc2OC)ncc1Cl [NVP-TAE226] | increased | increased |  |
| CN(c1ncccc1CNc1nc(Nc2ccc3c(c2)CC(=O)N3)ncc1C(F)(F)F)S(C)(=O)=O [PF-562271] | increased | increased |  |
| COc1ccc(COc2cc3oc(=O)c4cc(C(C)O)ccc4c3cc2OC)cc1 (centres unmarked) [Palomid-529] | significantly reduced | significantly reduced |  |
| CO[C@H]1C[C@@H]2CC[C@@H](C)[C@@](O)(O2)C(=O)C(=O)N2CCCC[C@H]2C(=O)O[C@H]([C@H](C)C[C@@H]2CC[C@@H](OCCO)[C@H](OC)C2)CC(=O)[C@H](C)/C=C(\C)[C@@H](O)[C@@H](OC)C(=O)[C@H](C)C[C@H](C)/C=C/C=C/C=C/1C [RAD-001] | did not suppress; also recorded: not suppressed | did not suppress; also recorded: not suppressed | production of G0-like cells [4]: not suppressed; production of G0-like cells [5]: not suppressed |
| CCC(=O)N1CCN(c2ccc(-n3c(=O)ccc4cnc5ccc(-c6cnc7ccccc7c6)cc5c43)cc2C(F)(F)F)CC1 [TORIN1] | significantly reduced | significantly reduced |  |
| AZD5363 | did not reduce | did not reduce |  |

Source: US20190049436A1, “MODULATION OF ASYMMETRIC PROLIFERATION” (THE GENERAL HOSPITAL CORPORATION, priority 2012, published 2019)
